Assays:
[1] = tested on: beta pancreatic INS-1 cells; test: Prevention of beta cells apoptosis (ssDNA apoptosis detection kit); format: cell-based; design: concentration or dose not given beside the values; details: 1 h pre-incubation then 24 h in apoptotic conditions, drugs tested alone
Experimental: The beta pancreatic INS-1 cells have been selected for this study. The cells are cultured in complete medium, RPMI 1640 10 mM glucose supplemented with 1 mM sodium pyruvate, 50 μM 2-mercaptoethanol, 2 mM glutamine, 10 mM HEPES, 100 IU/mL penicillin, 100 μg/mL streptomycin and 10% heat-inactivated fetal calf serum (FCS), as described by Asfari et al. (23). INS-1 cells are plated (4.5×10^4 cells/well) in 96-well poly-ornithine coated plates and cultured at 37° C. in a humidified atmosphere of 95% air/5% CO2. The day after, cells are pre-incubated with the tested molecules for 1 h. Then, after a medium change, cells are cultured for 24 h in a medium containing the tested molecules and 30 mM glucose, 0.05 mM myristic acid, 25 ng/mL INF, 25 ng/mL TNF and 5 ng/mL IL.
The efficacy of compounds to prevent apoptosis is then evaluated by the highly specific apoptosis detection kit from Chemicon (Ref. APT225). This procedure is based on the detection of single-stranded DNA (ssDNA) which is a specific marker of apoptotic cells (24).
Results are expressed in optical density (OD) arbitrary unit and % of reduction of the apoptosis induced by apoptotic condition. Following a Dunnett t-test, all compounds showing a significant decrease in % of apoptotic cells compared to apoptotic control conditions are considered active.

[2] = tested on: human primary diabetic myotubes; test: Glucose uptake in human diabetic myotube primary cultures; format: cell-based; details: myotubes from a diabetic patient, 24 h pre-treatment
Experimental: The myotubes from a diabetic patient were grown on HAM's F10-based media (Sigma, ref. N6908) supplemented with 15% of fetal bovine serum, 1 mM glutamine.
Myoblasts were seeded at 380,000 cells/well in 12-well plates. After 2 days of proliferation, the cells were placed in reduced serum conditions (2% horse serum) to induce differentiation. The myotubes were used after 5 days of differentiation.
Dulbecco's modified Eagle's medium (DMEM)-based media (Gibco, ref. 31053-028) supplemented with 2% heat-inactivated horse serum, 2% Glutamax (Gibco, ref. 35050) and washed for glucose uptake assays. Compounds were dissolved in DMSO to reach the desired final concentration prior to use.
The differentiated myotubes were treated for 24 h with the compositions of the invention before the assay.
Before the initiation of glucose uptake, the cells were deprived of serum and glucose. A deprivation was first performed in DMEM media containing reduced glucose (1 g/L) and no serum. After adding the compounds at the desired concentrations, the cells were incubated at 37° C. during 2 h30. […] A subsequent glucose and serum deprivation was performed in HBS buffer at 37° C. for 2 hours. The cells were treated with a mixture of 2-[^3H]deoxyglucose 10 Ci/mM+2-deoxy-D-glucose at 10 μM for 30 min. […] The cell lysates were transferred into scintillation vials for the measurement of radioactivity with a MicroBeta counter.

[3] = tested on: TNFα-induced insulin resistant 3T3-L1 differentiated adipocytes; test: Glucose uptake in TNFα-induced insulin resistant 3T3-L1 differentiated adipocytes; format: cell-based; details: for enhancement of glucose uptake: drug alone, vs non-treated insulin-resistant cells (TNFα); for enhancement of glucose uptake, combination with metformin: ifenprodil 3.3 nM and metformin 100 μM, combined or alone at the same concentrations
Experimental: 3T3L1 fibroblasts were maintained in DMEM 4.5 g/L glucose supplemented with 5% calf serum donor, 5% newborn calf serum, 100 U/mL penicillin, and 100 μg/mL streptomycin at 37° C. under a 10% CO2 atmosphere. Cells were grown on 24-well plates at a density of 2560 cells/well in 0.5 mL of growth medium (DMEM 4.5 g/L glucose supplemented with 10% FCS, 100 U/mL penicillin, and 100 μg/mL streptomycin). […] Fresh media were replaced after two days.
Glucose uptake was measured by quantification of incorporated radiolabeled glucose, after an incubation step with 2-deoxy-D[1,2^3H] glucose for 5 min. Glucose uptake was arrested by two washing steps in ice-cold PBS 1×, then were solubilized in 0.1N NaOH for 30 min. Cell-associated radioactivity was then counted using a MicroBeta counter after adding 600 μL per well of scintillant (Optiphase SuperMix3).
In parallel, protein quantification was determined by a colorimetric assay derived from the Lowry method. Results are expressed in nmol of glucose incorporated/5 mn/mg of protein and in % of control or basal condition (100%).

hepatocytes = test: Glucose production by hepatic cells; format: cell-based, rat; details: long-term, 0.01 μM (10 nM)
Experimental: Hepatocytes are isolated from 24 h-fasted male Wistar rats (200-250 g body weight) by ex situ liver perfusion in the presence of collagenase. Cell viability is validated by a trypan blue exclusion test. […] After plating, the medium is removed and cells are cultured for 16 h in RPMI medium without glucose (supplemented with the tested drugs for long-term evaluation). The following day, hepatic glucose production is assessed in Krebs-Ringer Bicarbonate HEPES buffer (KRBH; pH 7.4) in the presence of the neoglucogenic substrates (lactate 10 mM and pyruvate 1 mM) and the tested molecules for 4 h (short-term).
Supernatants are collected and glucose concentrations are determined using a glucose oxidase kit (Instrumentation Laboratory 0018250840). In parallel, protein quantification is performed using the colorimetric Lowry method.
Results are expressed in nmol glucose/mg protein and % of control condition (KLP: KRBH containing lactate and pyruvate).

**Q.** What does the source list for `CC(C(O)c1ccc(O)cc1)N1CCC(Cc2ccccc2)CC1` (stereo not shown) [ifenprodil]?
**A.** Percentage of apoptosis reduction [1]: 54%; enhancement of glucose uptake ([2]; 0.1 μM): improvement; enhancement of glucose uptake ([2]; 1 μM): improvement; enhancement of glucose uptake ([3]; 10 nM): improvement; enhancement of glucose uptake ([3]; 100 nM): improvement; enhancement of glucose uptake ([3]; 1 μM): +140%; enhancement of glucose uptake, combination experiment ([3]; drugs combined at a dose as low as 3.3 nM, or used individually, vs TNFα cells, Dunnett's test): No significant effect; enhancement of glucose uptake, combination with metformin ([3]; vs TNFα cells): No significant effect; enhancement of glucose uptake, combination with metformin ([3]; vs TNFα cells, listed as Ifenprodil): does not lead to any significant improvement; reduction of glucose production (hepatocytes): −22%

— US10596160B2, “Compositions, methods and uses for the treatment of diabetes and related conditions by controlling blood glucose level” (PHARNEXT, priority 2012, dated 2020)
